Experimental data: patent US20040001818A1, “Methods of inhibiting angiogenesis using NADPH oxidase inhibitors” (priority 2000, published 2004)
Starred links: 1 amine or outer side, 2 acyl side, 3 side chain; linkers in the order of their positions; H or OH if unused. Positions of bridges follow the written chain, without caps; N, C: chain ends. Non-standard residues stand in square brackets, D forms with d. Residues, ends and D or L forms follow the SMILES beside them. Chains are numbered I, II in the order given. Actinocin(9to1) = Cc1c2oc3c(C)ccc(C(=O)[*:1])c3nc-2c(C(=O)[*:2])c(N)c1=O; NMeV = CN[C@H](C(=O)O)C(C)C; Sar = CNCC(=O)O

Assays:
[1] = test system: MnSOD mRNA; experiment: Northern blot of MnSOD mRNA in HCAECs; assay type: cell-based, human; conditions: for VEGF stimulation of MnSOD: HCAEC pre-incubated with 1 μM GF-109203X, 50 μM PD98059 or 20 μM SB 203580; for VEGF-mediated induction of MnSOD: serum-starved HCAECs, VEGF 50 ng/ml, four hours, DPI 5, 25, 100 μM, apocynin 0.3, 2, 5 mM, allopurinol 0.1, 0.5 mM
Protocol: Cell culture. Human coronary artery endothelial cells (HCAECs) (Clonetics Corporation, San Diego, Calif., USA) and human pulmonary artery endothelial cells (HPAECs) were grown in Endothelial Growth Medium-2-MV (EGM-2-MV) BulletKit (Clonetics Corporation, San Diego, Calif., USA). At 80-90% confluence, the cells were serum-starved in DMEM containing 0.5% FBS for 24 hours and subsequently treated with VEGF-supplemented medium for the times indicated. Human recombinant VEGF was purchased from PeproTech, Inc. (Rocky Hill, N.J., USA). […] In other studies, the serum-starved cells were pretreated with the MEK inhibitor PD98059 at a final concentration of 50 μM or a specific PKC inhibitor bisindolylmaleimide I (BIM; CalBiochem, San Diego, Calif., USA) at a final concentration of 5 μM for 30 minutes prior to addition of growth factors. An equal amount of DMSO was added to the control plates. Northern blot analyses. Ten micrograms total RNA was loaded on a 0.7% formaldehyde-containing agarose gel. The RNA was transferred to nylon membrane, covalently cross-linked with UV radiation, prehybridized for 6 hours, and hybridized for 18 hours at 42° C. with a [^32P]dCTP-labeled cDNA probe containing MnSOD or eNOS cDNA sequence. The membranes were subsequently stripped and probed with a radiolabeled 18S-ribosome probe. For actinomycin D experiments, HCAEC cells were pretreated with 10 μg/ml actinomycin D (Sigma Chemical Company, St. Louis, Mo., USA) for 30 minutes before addition of VEGF and were harvested for total RNA one hour later.
To determine whether VEGF induced expression of MnSOD in primary endothelial cell cultures, HCAECs and HPAECs were serum starved for 24 hours, treated with 40 ng/ml VEGF for 0, 0.5, 1, 2, 4, 12 and 24 hours, and then harvested for total RNA. Northern blots were performed and probed for human MnSOD. […] The membranes were then stripped and reprobed for eNOS.
To determine whether the response of MnSOD to VEGF was mediated by ROS, HCAECs were serum starved and then treated with VEGF in the absence or presence of inhibitors of NADPH oxidase (DPI, apocynin), xanthine oxidase (allopurinol) and nitric oxide synthase (L-NAME).

[2] = test system: human coronary artery endothelial cells (HCAECs); experiment: [3H]-thymidine incorporation in HCAECs; assay type: cell-based; conditions: for thymidine incorporation: HCAECs grown in 10% FBS
Protocol: To determine whether the effect of serum or VEGF on endothelial cell proliferation might also be dependent upon ambient levels of ROS, HCAECs were grown to confluence, split into 24 wells, serum starved for eight hours and then incubated in the absence or presence of VEGF for 16 or 24 hours. All wells received 1 μCi of [^3H]-thymidine at the time of treatment. After 16 or 24 hours, medium was removed, and the wells were washed 3 times with PBS. Radioactivity was extracted and thymidine incorporation measured using a scintillation counter.

[3] = test system: human coronary artery endothelial cells (HCAECs); experiment: VEGF-induced chemotaxis of HCAECs, Boyden chamber assay; assay type: cell-based; conditions: for inhibition of migration, dose dependence: VEGF 50 ng/ml, DPI 0.5, 1.0, 5.0, 10 μM, AEBSF 5, 50, 100, 250 μM
Protocol: The capacity of NADPH oxidase inhibitors to block migration of human coronary artery endothelial cells was tested. In these studies, VEGF-induced chemotaxis was tested with the Boyden chamber assay. Human coronary artery endothelial cells were serum starved in 0.5% FBS overnight. 25,000 cells were seeded into the upper chamber in the absence or presence of DPI, while media containing 0.5% FBS and 40 ng/ml was placed into the lower chamber. The chamber was incubated for 4 hours at 37° C., at which time the polycarbonate filters were harvested and counted for migrating cells. The results are shown in FIG. 14, which is a histogram showing the migration in terms of cell count (y-axis) of human coronary artery endothelial cells in a Boyden chamber. The cells were serum starved in 0.5% FBS and treated with either VEGF, DPI or VEGF+DPI (x-axis).
The effect of AEBSF on VEGF-induced migration was also studied. HCAECs were treated as above and treated by either VEGF, VEGF+100 μM allopurinol, or VEGF+250 μM AEBSF. The results are shown in FIG. 15, which is a histogram showing migration in terms of cell count (y-axis) when treated (x-axis). The NADPH oxidase inhibitor AEBSF abrograted the VEGF-mediated chemotaxis of HCAECs.
These are histograms showing VEGF-mediated chemotaxis in control HCAECs (“C”), or HCAECs treated with 50 ng/ml VEGF in the absence or presence of increasing doses of DPI (0.5, 1.0, 5.0 or 10 μM; FIG. 16A) or AEBSF (5, 50, 100 or 250 μM; FIG. 16B).

[4] = test system: ROS; experiment: ROS generation: DCF oxidation by flow cytometry in DCFDA-labeled HCAECs; assay type: cell-based, human; conditions: relative to basal rate of control cells
Protocol: Western blot analyses. Whole cell protein extracts were prepared from serum-starved HCAECs and HPAECs one hour following addition of growth factor-supplemented or mock-treated media. Cells were washed twice with cold phosphate-buffered saline, harvested with a cell scraper, and lysed in ice-cold lysis buffer containing 20 mM HEPES, pH 7.5, 150 mM NaCl, 1% NP-40, 0.1% SDS, 1 mM EDTA, 1 mM DTT, 0.5 mM phenylmethylsulfonyl fluoride (PMSF), and the protease inhibitor cocktail (Boehringer Mannheim, Mannheim, Germany) for one hour. The resulting lysates were centrifuged at 10,000× g for 20 minutes and the supernatants were saved as whole cell protein extracts. Forty micrograms of protein were separated by 10% SDS-PAGE and electrotransferred to nitrocellulose membranes. Membranes were blocked with 5% nonfat dry milk in Tris-buffered saline with 0.1% Tween 20 for one hour at room temperature. The blot was incubated with primary rabbit polyclonal anti-MnSOD IgG (1:1000 dilution) (Santa Cruz Biotechnology Inc., Santa Cruz, Calif., USA) overnight at 4° C., followed by secondary antibody goat-anti-rabbit horseradish peroxidase conjugate (1:1000 dilution) (Pierce, Rockford, Ill., USA). The blot was washed extensively between each incubation step. Peroxidase activity was visualized with an enhanced chemiluminescense substrate system (Amersham, Arlington Heights, Ill., USA). Membranes were stripped and probed for eNOS and β-actin. Flow cytometry. Endothelial cells were labeled with DCFDA and oxidation of DCF was measured by flow cytometry.
To test whether VEGF increases ROS production in endothelial cells, HCAECs were labeled with […] DCFDA and oxidation of DCF was measured by flow cytometry. […] PMS is known to induce free oxygen radicals.

[5] = test system: mouse embryonic fibroblasts; experiment: [3H]-thymidine incorporation in primary murine embryonic fibroblasts; assay type: cell-based; conditions: 10% FBS, 16 hours
Protocol: To determine whether the effect of NADPH oxidase inhibition was specific to endothelial cells, the effect of the various inhibitors on thymidine incorporation in primary murine embryonic fibroblasts was tested. The results are shown in FIG. 13, which is a histogram showing thymidine incorporation (y-axis) in mouse embryonic fibroblasts that have been grown in 0.5% FBS or 10% FBS in the absence (10% FBS) or presence of inhibitors (Apo=apocynin; allo=allopurinol; L-NAME) for 16 hours.

[6] = serum starved (0.5% FBS) and VEGF-treated HCAECs, 16 or 24 hours

CN(C)CCCn1cc(C2=C(c3c[nH]c4ccccc34)C(=O)NC2=O)c2ccccc21 [GF-109203X] was tested, and the “VEGF stimulation of MnSOD” value [1] was “significantly reduced”.
With CN(C)CCCn1cc(C2=C(c3c[nH]c4ccccc34)C(=O)NC2=O)c2ccccc21 [BIM, bisindolylmaleimide I] the “VEGF-mediated induction of MnSOD mRNA” value ([1]; preincubation, BIM 0.1, 1, 5 μM, PD98059 5, 20, 100 μM) was “inhibited”.
In the case of O=C1c2ccccc2Cc2ccccc21 [anthrone], the thymidine uptake [2, 6] was “profound inhibition”.
With Cc1c2oc3c(C)ccc(C(=O)N[C@@H]4C(=O)N[C@H](C(C)C)C(=O)N5CCC[C@H]5C(=O)N(C)CC(=O)N(C)[C@@H](C(C)C)C(=O)O[C@@H]4C)c3nc-2c(C(=O)N[C@@H]2C(=O)N[C@H](C(C)C)C(=O)N3CCC[C@H]3C(=O)N(C)CC(=O)N(C)[C@@H](C(C)C)C(=O)O[C@@H]2C)c(N)c1=O [Actinomycin D, actinomycin D] (I: T[dV]P[Sar][NMeV] / II: T[dV]P[Sar][NMeV]; ester I:1-I:C, II:1-II:C; linker I:N-II:N via Actinocin(9to1)) the “VEGF-mediated induction of MnSOD mRNA” value ([1]; HCAEC, 10 μg/ml actinomycin D for 30 minutes before 60 minute incubation with VEGF) was “completely abolished”.
With c1ccc2c(c1)[I+]c1ccccc1-2 [DPI, diphenyleneiodonium] the “DPI concentration inhibiting serum-induced thymidine incorporation” value ([2]; HCAECs in 5.0% FBS, doses 1, 5, 25, 40, 80 μM) was at most 1 µM, the thymidine uptake [2, 6] was “profound inhibition” and the “migration (cell count)” value ([3]; 25 μM DPI, VEGF in lower chamber, 4 hours) was “profound inhibition”. The “inhibition of migration, dose dependence” value [3] was “dose-dependent”, the “VEGF-mediated induction of MnSOD” value [1] was “inhibited” and the “DCF oxidation (ROS production)” value [4] was “significantly inhibited”.
In the case of COc1cccc(-c2cc(=O)c3ccccc3o2)c1N [PD98059], the “VEGF stimulation of MnSOD” value [1] was “not”.
COc1cc(C(C)=O)ccc1O [apocynin] was tested, and the serum-induced thymidine incorporation ([2]; HCAECs, 5.0% FBS, apocynin 300 μM, 500 μM, 1 mM, 2 mM, 3 mM) was “dose-dependent inhibition”, the thymidine incorporation [5] was “failed to reduce incorporation below baseline” and the “VEGF-mediated induction of MnSOD” value [1] was “inhibited”.
CCCCCCCCCCCCCC(=O)O[C@@H]1[C@@H](C)[C@@]2(O)[C@@H](C=C(CO)C[C@]3(O)C(=O)C(C)=C[C@@H]23)[C@@H]2C(C)(C)[C@]12OC(C)=O [PMA] was tested, and the “DCF oxidation (ROS production)” value [4] was “significantly increased”.
In the case of NCCc1ccc(S(=O)(=O)F)cc1 [AEBSF, 4-(2-aminoethyl)-benzenesulfonyl fluoride], the thymidine uptake ([2]; HCAECs, 5% FBS, AEBSF 5, 50, 100, 500 μM) was “inhibited”, the “inhibition of migration, dose dependence” value [3] was “dose-dependent” and the VEGF-mediated chemotaxis ([3]; VEGF + 250 μM AEBSF) was “abrograted”. The “VEGF-mediated induction of MnSOD mRNA” value ([1]; pretreatment with the inhibitor, concentration not given) was “inhibited”.
For COS(=O)(=O)[O-].C[n+]1c2ccccc2nc2ccccc21 [PMS], the “DCF oxidation (ROS production)” value [4] was “increased ROS production”.
Oc1ncnc2[nH]ncc12 [allopurinol] was tested, and the thymidine incorporation [2] was “no effect” and the “DCF oxidation (ROS production)” value [4] was “no effect”.
In the case of C[S+]([O-])c1ccc(-c2nc(-c3ccncc3)c(-c3ccc(F)cc3)[nH]2)cc1 (stereo not shown) [SB 203580], the “VEGF stimulation of MnSOD” value [1] was “not”.
COC(=O)[C@@H](N)CCCNC(=N)N[N+](=O)[O-] [L-NAME] was tested, and the thymidine incorporation [2] was “no effect” and the “DCF oxidation (ROS production)” value [4] was “no effect”.
